From ChEMBL document CHEMBL1201861, “Genomics of Drug Sensitity in Cancer screening data, Wellcome Trust Sanger Institute”

Legend:
NCCIT = assay: SANGER: Inhibition of human NCCIT cell growth in a cell viability assay.; assay type: functional, cell-based; conditions: Homo sapiens, NCCIT
U-698-M = assay: cells; assay type: functional, cell-based, Homo sapiens; conditions: Homo sapiens, U-698-M
Description: SANGER: Inhibition of human U-698-M cell growth in a cell viability assay.

NCI-H748 = assay: cells; assay type: functional, cell-based, Homo sapiens; conditions: Homo sapiens, NCI-H748;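 further: growth inhibition of NCI-H748 cells, measured by a cell viability assay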
Description: SANGER: Inhibition of human NCI-H748 cell growth in a cell viability assay.

EW-24 = assay: cells; assay type: functional, cell-based, Homo sapiens; conditions: Homo sapiens, EW-24;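 further: human EW-24 cancer cell line, growth inhibition read out via a cell viability assay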
Description: SANGER: Inhibition of human EW-24 cell growth in a cell viability assay.

ARH-77 = assay: cells; assay type: functional, cell-based, Homo sapiens; conditions: Homo sapiens, ARH-77;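 further: growth inhibition of ARH-77 cells, read out by a cell viability assay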
Description: SANGER: Inhibition of human ARH-77 cell growth in a cell viability assay.

OPM-2 = assay: cells; assay type: functional, cell-based, Homo sapiens; conditions: Homo sapiens, OPM-2;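 further: growth of OPM-2 cells measured with a viability assay, IC50 for suppression of proliferation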
Description: SANGER: Inhibition of human OPM-2 cell growth in a cell viability assay.

TE-15 = assay: cells; assay type: functional, cell-based, Homo sapiens; conditions: Homo sapiens, TE-15;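 further: cell viability readout of growth inhibition in TE-15 cells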
Description: SANGER: Inhibition of human TE-15 cell growth in a cell viability assay.

BL-41 = assay: cells; assay type: functional, cell-based; conditions: Homo sapiens;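 further: growth inhibition of human BL-41 cells, read out with a cell viability assay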
Description: SANGER: Inhibition of human BL-41 cell growth in a cell viability assay.

CESS = assay: SANGER: Inhibition of human CESS cell growth in a cell viability assay.; assay type: functional, cell-based; conditions: Homo sapiens, CESS
BL-70 = assay: SANGER: Inhibition of human BL-70 cell growth in a cell viability assay.; assay type: functional, cell-based; conditions: Homo sapiens, BL-70
NCI-H2081 = assay: cells; assay type: functional, cell-based, Homo sapiens; conditions: Homo sapiens, NCI-H2081;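 further: growth inhibition of human NCI-H2081 cells, read out with a cell viability assay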
Description: SANGER: Inhibition of human NCI-H2081 cell growth in a cell viability assay.

SNU-16 = assay: cells; assay type: functional, cell-based, Homo sapiens; conditions: Homo sapiens, SNU-16;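 further: growth inhibition of human SNU-16 cells, determined with a cell viability readout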
Description: SANGER: Inhibition of human NCI-SNU-16 cell growth in a cell viability assay.

NCI-H322M = assay: cells; assay type: functional, cell-based, Homo sapiens; conditions: Homo sapiens, NCI-H322M;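 further: cell viability assay measuring inhibition of growth of human NCI-H322M cells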
Description: SANGER: Inhibition of human NCI-H322M cell growth in a cell viability assay.

BOKU = assay: cells; assay type: functional, cell-based; conditions: Homo sapiens;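 further: growth inhibition of the human BOKU cell line, read out by a cell viability assay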
Description: SANGER: Inhibition of human BOKU cell growth in a cell viability assay.

KMS-12-PE = assay: cells; assay type: functional, cell-based, Homo sapiens; conditions: Homo sapiens, KMS-12-PE;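 further: growth inhibition of human KMS-12-PE cells, measured with a cell viability assay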
Description: SANGER: Inhibition of human KMS-12-PE cell growth in a cell viability assay.

HuTu80 = assay: cells; assay type: functional, cell-based, Homo sapiens, HUTU-80; conditions: Homo sapiens, HuTu80;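 further: growth inhibition of HuTu80 human cells, determined with a cell viability readout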
Description: SANGER: Inhibition of human HUTU-80 cell growth in a cell viability assay.

A2058 = assay: cells; assay type: functional, cell-based; conditions: Homo sapiens;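 further: reduction of A2058 cell growth, read out with a viability assay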
Description: SANGER: Inhibition of human A2058 cell growth in a cell viability assay.

GP5d = assay: cells; assay type: functional, cell-based; conditions: Homo sapiens;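 further: growth inhibition of human GP5d cells, read out with a cell viability assay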
Description: SANGER: Inhibition of human GP5d cell growth in a cell viability assay.

LN-405 = assay: cells; assay type: functional, cell-based; conditions: Homo sapiens
Description: SANGER: Inhibition of human LN-405 cell growth in a cell viability assay.

D-392MG = assay: cells; assay type: functional, cell-based; conditions: Homo sapiens
FTC-133 = assay: cells; assay type: functional, cell-based; conditions: Homo sapiens
MKN-28 = assay: cells; assay type: functional, cell-based; conditions: Homo sapiens;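 further: cell viability assay read-out, IC50 reflects suppression of growth of human MKN-28 cells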
Description: SANGER: Inhibition of human MKN28 cell growth in a cell viability assay.

SK-N-AS = assay: cells; assay type: functional, cell-based; conditions: Homo sapiens;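 further: growth inhibition of human SK-N-AS cells, measured with a cell viability assay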
Description: SANGER: Inhibition of human SK-N-AS cell growth in a cell viability assay.

KYSE-510 = assay: cells; assay type: functional, cell-based; conditions: Homo sapiens;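 further: cell viability readout used to measure how strongly growth of the cell line is suppressed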
Description: SANGER: Inhibition of human KYSE-510 cell growth in a cell viability assay.

CAL-54 = assay: cells; assay type: functional, cell-based; conditions: Homo sapiens;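 further: growth inhibition of CAL-54 cells, read out by a viability measurement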
Description: SANGER: Inhibition of human CAL-54 cell growth in a cell viability assay.

VM-CUB-1 = assay: cells; assay type: functional, cell-based; conditions: Homo sapiens;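 further: cell viability assay measuring growth inhibition of the human VM-CUB-1 cell line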
Description: SANGER: Inhibition of human VM-CUB-1 cell growth in a cell viability assay.

NCI-H1563 = assay: cells; assay type: functional, cell-based; conditions: Homo sapiens;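 further: growth inhibition of human NCI-H1563 cells, read out with a cell viability assay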
Description: SANGER: Inhibition of human NCI-H1563 cell growth in a cell viability assay.

NCI-H2087 = assay: cells; assay type: functional, cell-based; conditions: Homo sapiens;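 further: growth inhibition determined with a cell viability readout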
Description: SANGER: Inhibition of human NCI-H2087 cell growth in a cell viability assay.

DU-145 = assay: cells; assay type: functional, cell-based; conditions: Homo sapiens
Description: SANGER: Inhibition of human DU-145 cell growth in a cell viability assay.

HT1197 = assay: cells; assay type: functional, cell-based, HT-1197; conditions: Homo sapiens
Description: SANGER: Inhibition of human HT-1197 cell growth in a cell viability assay.

LCLC-97TM1 = assay: cells; assay type: functional, cell-based; conditions: Homo sapiens;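 further: cell viability assay measuring growth inhibition of human LCLC-97TM1 cells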
Description: SANGER: Inhibition of human LCLC-97TM1 cell growth in a cell viability assay.

TYK-nu = assay: cells; assay type: functional, cell-based; conditions: Homo sapiens;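 further: growth inhibition of human TYK-nu cells, read out by a cell viability assay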
Description: SANGER: Inhibition of human TYK-nu cell growth in a cell viability assay.

COLO-741 = assay: cells; assay type: functional, cell-based; conditions: Homo sapiens
Description: SANGER: Inhibition of human COLO-741 cell growth in a cell viability assay.

COLO-678 = assay: cells; assay type: functional, cell-based; conditions: Homo sapiens
Description: SANGER: Inhibition of human COLO-678 cell growth in a cell viability assay.

CAL-33 = assay: cells; assay type: functional, cell-based; conditions: Homo sapiens;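 further: growth inhibition of CAL-33 cells, read out with a cell viability assay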
Description: SANGER: Inhibition of human CAL-33 cell growth in a cell viability assay.

NCI-H520 = assay: cells; assay type: functional, cell-based; conditions: Homo sapiens;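 further: growth inhibition of NCI-H520 cells, measured by a cell viability assay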
Description: SANGER: Inhibition of human NCI-H520 cell growth in a cell viability assay.

SW948 = assay: cells; assay type: functional, cell-based; conditions: Homo sapiens;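 further: growth inhibition of SW948 cells, read out with a cell viability assay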
Description: SANGER: Inhibition of human SW948 cell growth in a cell viability assay.

769-P = assay: cells; assay type: functional, cell-based; conditions: Homo sapiens
Description: SANGER: Inhibition of human 769-P cell growth in a cell viability assay.

BPH-1 = assay: cells; assay type: functional, cell-based; conditions: Homo sapiens;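 further: cell viability assay measuring growth inhibition of human BPH-1 cells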
Description: SANGER: Inhibition of human BPH-1 cell growth in a cell viability assay.

H4 = assay: cells; assay type: functional, cell-based; conditions: Homo sapiens
Description: SANGER: Inhibition of human H4 cell growth in a cell viability assay.

NCI-H727 = assay: cells; assay type: functional, cell-based; conditions: Homo sapiens;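 further: growth inhibition of human NCI-H727 cells, read out with a cell viability assay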
Description: SANGER: Inhibition of human NCI-H727 cell growth in a cell viability assay.

J82 = assay: cells; assay type: functional, cell-based; conditions: Homo sapiens;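 further: growth inhibition of J82 cells, read out with a cell viability assay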
Description: SANGER: Inhibition of human J82 cell growth in a cell viability assay.

CAL-72 = assay: cells; assay type: functional, cell-based; conditions: Homo sapiens;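 further: cell viability assay measuring inhibition of proliferation in the CAL-72 cell line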
Description: SANGER: Inhibition of human CAL-72 cell growth in a cell viability assay.

HCC70 = assay: cells; assay type: functional, cell-based; conditions: Homo sapiens;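 further: cell viability assay measuring how strongly the compound suppresses proliferation of HCC70 cells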
Description: SANGER: Inhibition of human HCC70 cell growth in a cell viability assay.

ACHN = assay: cells; assay type: functional, cell-based; conditions: Homo sapiens;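 further: cell viability read-out used to gauge how strongly growth of human ACHN cells is suppressed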
Description: SANGER: Inhibition of human ACHN cell growth in a cell viability assay.

SAOS-2 = assay: cells; assay type: functional, cell-based; conditions: Homo sapiens;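 further: growth inhibition of human Saos-2 cells determined by a cell viability assay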
Description: SANGER: Inhibition of human Saos-2 cell growth in a cell viability assay.

HPAF-II = assay: cells; assay type: functional, cell-based; conditions: Homo sapiens;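 further: growth inhibition of HPAF-II cells, read out with a cell viability assay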
Description: SANGER: Inhibition of human HPAF-II cell growth in a cell viability assay.

FaDu = assay: cells; assay type: functional, cell-based; conditions: Homo sapiens;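 further: cell viability readout of growth inhibition in FaDu cells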
Description: SANGER: Inhibition of human FADU cell growth in a cell viability assay.

SCC-25 = assay: cells; assay type: functional, cell-based; conditions: Homo sapiens;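 further: growth inhibition of SCC-25 cells, measured with a cell viability assay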
Description: SANGER: Inhibition of human SCC-25 cell growth in a cell viability assay.

LoVo = assay: cells; assay type: functional, cell-based; conditions: Homo sapiens;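 further: growth inhibition of human LoVo cells, read out with a cell viability assay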
Description: SANGER: Inhibition of human LoVo cell growth in a cell viability assay.

CAMA-1 = assay: cells; assay type: functional, cell-based; conditions: Homo sapiens;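 further: growth inhibition of CAMA-1 cells, read out with a cell viability assay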
Description: SANGER: Inhibition of human CAMA-1 cell growth in a cell viability assay.

HCC1806 = assay: cells; assay type: functional, cell-based; conditions: Homo sapiens;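 further: growth inhibition of the cancer cell line, determined with a cell viability assay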
Description: SANGER: Inhibition of human HCC1806 cell growth in a cell viability assay.

SW1990 = assay: cells; assay type: functional, cell-based; conditions: Homo sapiens
Description: SANGER: Inhibition of human SW1990 cell growth in a cell viability assay.

COR-L105 = assay: cells; assay type: functional, cell-based; conditions: Homo sapiens
Description: SANGER: Inhibition of human COR-L105 cell growth in a cell viability assay.

Capan-2 = assay: cells; assay type: functional, cell-based; conditions: Homo sapiens;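 further: Capan-2 cell growth inhibition, read out with a viability assay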
Description: SANGER: Inhibition of human Capan-2 cell growth in a cell viability assay.

MIA PaCa-2 = assay: cells; assay type: functional, cell-based; conditions: Homo sapiens;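 further: growth inhibition of MIA PaCa-2 cells, read out with a cell viability assay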
Description: SANGER: Inhibition of human MIA-PaCa-2 cell growth in a cell viability assay.

KYSE-150 cell line = assay: cells; assay type: functional, cell-based; conditions: Homo sapiens;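 further: growth inhibition of human KYSE-150 cells, read out with a cell viability assay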
Description: SANGER: Inhibition of human KYSE-150 cell growth in a cell viability assay.

UMUC3 = assay: cells; assay type: functional, cell-based; conditions: Homo sapiens;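 further: growth inhibition of human UM-UC-3 cells, read out with a cell viability assay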
Description: SANGER: Inhibition of human UM-UC-3 cell growth in a cell viability assay.

A2780 = assay: cells; assay type: functional, cell-based; conditions: Homo sapiens;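 further: growth inhibition of A2780 cells, read out with a cell viability assay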
Description: SANGER: Inhibition of human A2780 cell growth in a cell viability assay.

Measured: IC50

Cc1ccc(NC(=O)c2ccc(CN3CCN(C)CC3)cc2)cc1Nc1nccc(-c2cccnc2)n1 [IMATINIB]
> 2000 nM: NCCIT | U-698-M | NCI-H748 | EW-24 | ARH-77 | OPM-2 | TE-15 | BL-41 | CESS | BL-70 | NCI-H2081 | SNU-16 | NCI-H322M | BOKU | KMS-12-PE | HuTu80

Cc1ccc(C(=O)Nc2ccc(CN3CCN(C)CC3)c(C(F)(F)F)c2)cc1C#Cc1cnc2cccnn12 [PONATINIB]
261 nM: TE-15
343 nM: A2780
293 nM: ACHN
424 nM: KYSE-150 cell line
365 nM: OPM-2
204 nM: NCI-H2087
425 nM: H4
22 nM: BL-70
> 512 nM: A2058 | NCCIT | GP5d | LN-405 | FTC-133 | MKN-28 | SK-N-AS | U-698-M | KYSE-510 | CAL-54 | VM-CUB-1 | NCI-H748 | NCI-H1563 | DU-145 | EW-24 | HT1197 | ARH-77 | TYK-nu | COLO-741 | COLO-678 | CAL-33 | SW948 | BL-41 | 769-P | BPH-1 | NCI-H727 | CESS | J82 | NCI-H2081 | CAL-72 | HCC70 | SAOS-2 | SNU-16 | HPAF-II | FaDu | SCC-25 | LoVo | NCI-H322M | BOKU | CAMA-1 | HCC1806 | SW1990 | KMS-12-PE | HuTu80 | COR-L105 | Capan-2 | MIA PaCa-2 | UMUC3
177 nM: NCI-H520
462 nM: LCLC-97TM1
232 nM: D-392MG

COc1cc(N2CCC(N3CCN(C)CC3)CC2)ccc1Nc1ncc(Cl)c(Nc2ccccc2S(=O)(=O)C(C)C)n1 [TAE-684]
> 2000 nM: NCCIT | U-698-M | NCI-H748 | EW-24 | ARH-77 | CESS | NCI-H2081 | NCI-H322M | BOKU | KMS-12-PE
227 nM: OPM-2
1760 nM: BL-41
511 nM: TE-15
474 nM: HuTu80
995 nM: BL-70
727 nM: SNU-16
